# Laboratory results from patent US8552037B2, “Tricyclic compound and pharmaceutical use thereof” (Takeda Pharmaceutical Company Limited, priority 2006, dated 2013).
row,Structure (SMILES),melting point
1,"CCC(=O)NCC=C1CCc2ccc3ncoc3c21 [Example 2, N-[2-(6,7-Dihydro-8H-indeno[5,4-d][1,3]oxazol-8-ylidene)ethyl]propionamide]",148 to 150 °C
2,"CCC(=O)NCC=C1CCc2ccc3nc(CCCCc4ccccc4)oc3c21 [Example 7, N-{2-[2-(4-Phenylbutyl)-6,7-dihydro-8H-indeno[5,4-d][1,3]oxazol-8-ylidene]ethyl}propionamide]",111 to 113 °C
3,"CCC(=O)NCCC1CCc2ccc3ncoc3c21 (stereo not shown) [Example 10, N-[2-(7,8-Dihydro-6H-indeno[5,4-d][1,3]oxazol-8-yl)ethyl]propionamide]",89 to 90 °C
4,"CC(=O)NCCC1CCc2ccc3nc(CO)oc3c21 (stereo not shown) [Example 23, N-{2-[2-(Hydroxymethyl)-7,8-dihydro-6H-indeno[5,4-d][1,3]oxazol-8-yl]ethyl}acetamide]",132 to 134 °C
5,"CC(=O)NCCC1CCc2ccc3nc(C(F)(F)F)oc3c21 (stereo not shown) [Example 25, N-{2-[2-(Trifluoromethyl)-7,8-dihydro-6H-indeno[5,4-d][1,3]oxazol-8-yl]ethyl}acetamide]",114 to 116 °C
6,"CC(=O)CCc1nc2ccc3c(c2o1)C(CCNC(C)=O)CC3 (stereo not shown) [Example 28, N-{2-[2-(3-Oxobutyl)-7,8-dihydro-6H-indeno[5,4-d][1,3]oxazol-8-yl]ethyl}acetamide]",111 to 112 °C
7,"CC(=O)NCCC1CCc2ccc3nc(-c4ccccc4)oc3c21 (stereo not shown) [Example 30, N-[2-(2-Phenyl-7,8-dihydro-6H-indeno[5,4-d][1,3]oxazol-8-yl)ethyl]acetamide]",124 to 126 °C
8,"CC(=O)NCCC1CCc2ccc3nc(CCc4ccccc4)oc3c21 (stereo not shown) [Example 32, N-{2-[2-(2-Phenylethyl)-7,8-dihydro-6H-indeno[5,4-d][1,3]oxazol-8-yl]ethyl}acetamide]",85 to 87 °C
9,"CC(=O)NCCC1CCc2ccc3nc(CCCc4ccccc4)oc3c21 (stereo not shown) [Example 33, N-{2-[2-(3-Phenylpropyl)-7,8-dihydro-6H-indeno[5,4-d][1,3]oxazol-8-yl]ethyl}acetamide]",95 to 97 °C
10,"CSc1nc2ccc3c(c2o1)C(CCNC(C)=O)CC3 (stereo not shown) [Example 39, N-{2-[2-(Methylthio)-7,8-dihydro-6H-indeno[5,4-d][1,3]oxazol-8-yl]ethyl}acetamide]",115 to 117 °C
11,"Cc1nc2ccc3c(c2o1)C(CCNC(=O)c1ccccc1)CC3 (stereo not shown) [Example 44, N-[2-(2-Methyl-7,8-dihydro-6H-indeno[5,4-d][1,3]oxazol-8-yl)ethyl]benzamide]",73 to 76 °C
12,"CCNC(=O)NCCC1CCc2ccc3nc(C)oc3c21 (stereo not shown) [Example 46, 1-Ethyl-3-[2-(2-methyl-7,8-dihydro-6H-indeno[5,4-d][1,3]oxazol-8-yl)ethyl]urea]",136 to 138 °C
13,"CC(=O)NCCC1=C(C(C)C)Cc2ccc3nc(C)oc3c21 [Example 49, N-[2-(7-Isopropyl-2-methyl-6H-indeno[5,4-d][1,3]oxazol-8-yl)ethyl]acetamide]",135 to 138 °C
